Experimental data: patent US20260176320A1, “MODULATORS OF G-PROTEIN COUPLED RECEPTORS” (priority 2018, published 2026)
Read-outs that look alike come from different tables or passages of the source. Numbered stars: 1 amine (or outer) side, 2 acyl side, 3 side chain; on linkers, the order of the positions; unused ones are H or OH. Square brackets hold non-standard residues; d marks the D form. Side chains are listed from the residue outwards. Peptide text beside a SMILES is read from it. * marks the point of attachment. X1 = O=C(CSCC(=O)*)NCCN1C(=O)c2ccccc2C1=O; γGlu = O=C(O)[C@H](CCC(=O)[*:2])N[*:1]; X2 = O=C(CSCC(=O)*)NCCN1C(=O)CSC1=O; Palmitoyl = CCCCCCCCCCCCCCCC(=O)*; Aib = CC(C)(N)C(=O)O

Columns and labels:
GLP-1R = GLP-1R (Homo sapiens, UniProt P43220); assay: HitHunter cAMP assay (GLP-1R); assay type: cell-based; conditions: cAMP; for Emax: read-out: (Emax) GLP-1R
Sequence of GLP-1R (P43220 24-463): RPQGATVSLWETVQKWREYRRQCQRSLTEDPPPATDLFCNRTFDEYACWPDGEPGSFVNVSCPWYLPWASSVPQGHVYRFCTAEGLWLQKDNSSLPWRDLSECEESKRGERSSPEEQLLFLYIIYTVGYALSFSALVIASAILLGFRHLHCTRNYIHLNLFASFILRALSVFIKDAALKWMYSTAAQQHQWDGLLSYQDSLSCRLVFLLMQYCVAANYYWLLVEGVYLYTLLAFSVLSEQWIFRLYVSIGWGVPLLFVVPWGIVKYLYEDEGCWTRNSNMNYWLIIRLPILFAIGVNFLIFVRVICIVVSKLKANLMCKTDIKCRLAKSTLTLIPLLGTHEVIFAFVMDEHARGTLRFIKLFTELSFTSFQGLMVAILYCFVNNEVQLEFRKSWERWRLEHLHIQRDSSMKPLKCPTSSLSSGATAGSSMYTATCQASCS
How it was run: (§1)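 Luminescent readout of cAMP by enzyme-fragment immunocompetition gave agonist concentration-response data. Cells (10,000/well) sat in HBSS buffer containing IBMX 625 μM, HEPES 10 mM and BSA 0.2%, exposed to agonist for 30 min at room temperature.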

GIP-R = target: T1, GIP-R (Homo sapiens, UniProt P48546); assay: HitHunter cAMP assay (GIP-R); assay type: cell-based; conditions: cAMP; for Emax: read-out: (Emax) GIP-R
T1 sequence (P48546 22-466): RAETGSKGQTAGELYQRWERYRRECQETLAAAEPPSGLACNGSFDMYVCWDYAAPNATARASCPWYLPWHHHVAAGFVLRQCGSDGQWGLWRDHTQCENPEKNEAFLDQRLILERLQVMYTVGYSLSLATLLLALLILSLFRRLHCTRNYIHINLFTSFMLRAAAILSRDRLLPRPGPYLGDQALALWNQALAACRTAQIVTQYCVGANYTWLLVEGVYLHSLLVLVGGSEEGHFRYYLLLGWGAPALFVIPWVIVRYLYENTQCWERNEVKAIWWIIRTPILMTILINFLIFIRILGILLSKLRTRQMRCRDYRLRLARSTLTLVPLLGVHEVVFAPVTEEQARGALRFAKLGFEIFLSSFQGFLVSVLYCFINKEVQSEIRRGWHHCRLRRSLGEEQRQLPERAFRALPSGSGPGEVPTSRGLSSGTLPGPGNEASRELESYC
How it was run: as §1

[1] = Table 3, read-out: EC50 GLP-1R/nM
[2] = Table 3A, read-out: EC50 GLP-1R/nM
[3] = Table 3, read-out: EC50 GIP-R/nM
[4] = Table 3A, read-out: EC50 GIP-R/nM

Row | Compound | Emax (GLP-1R; Table 3) [%] | EC50 (GLP-1R; [1]) [nM] | Emax (GLP-1R; Table 3A) [%] | EC50 (GLP-1R; [2]) [nM] | Emax (GIP-R; Table 3) [%] | EC50 (GIP-R; [3]) [nM] | Emax (GIP-R; Table 3A) [%] | EC50 (GIP-R; [4]) [nM] | EC50 (GLP-1R; EC50 GLP-1R/nM, Table 3) [nM] | EC50 (GLP-1R; EC50 GLP-1R/nM, Table 3A) [nM] | EC50 (GIP-R; EC50 GIP-R/nM, Table 3) [nM] | EC50 (GIP-R; EC50 GIP-R/nM, Table 3A) [nM]
1 | CCCCCCCCCCCCCCCC(=O)N[C@@H](CCC(=O)NCCCC[C@H](NC(=O)[C@H](CO)NC(=O)[C@@H]1CCCN1C(=O)[C@@H]1CCCN1C(=O)[C@@H]1CCCN1C(=O)[C@H](C)NC(=O)CNC(=O)[C@H](CO)NC(=O)[C@H](CO)NC(=O)[C@@H]1CCCN1C(=O)CNC(=O)CNC(=O)[C@H](C)NC(=O)[C@H](CC(C)C)NC(=O)[C@H](CC(C)C)NC(=O)[C@H](Cc1c[nH]c2ccccc12)NC(=O)[C@H](CC(N)=O)NC(=O)[C@@H](NC(=O)[C@H](Cc1ccccc1)NC(=O)[C@H](CCC(=O)O)NC(=O)C(C)(C)NC(=O)[C@H](C)NC(=O)[C@H](C)NC(=O)[C@H](CCC(N)=O)NC(=O)[C@H](CCCCN)NC(=O)[C@H](CC(=O)O)NC(=O)[C@H](CC(C)C)NC(=O)[C@H](Cc1ccc(O)cc1)NC(=O)[C@@H](NC(=O)[C@H](CO)NC(=O)[C@H](Cc1ccc(O)cc1)NC(=O)[C@H](CC(=O)O)NC(=O)[C@H](CO)NC(=O)[C@@H](NC(=O)[C@H](Cc1ccccc1)NC(=O)[C@@H](NC(=O)CNC(=O)[C@H](CCC(=O)O)NC(=O)CSCC(=O)NCCN1CC(=O)N(C)C1=O)[C@@H](C)O)[C@@H](C)O)[C@@H](C)CC)C(C)C)C(N)=O)C(=O)O [Compound 46] | 100 | 1 to 10 | 100 | 1 to 10 | 46 | 1 to 10 | 46 | 1 to 10 |  |  |  | 
2 | CCCCCCCCCCCCCCCC(=O)N[C@@H](CCC(=O)NCCCC[C@H](NC(=O)[C@H](CO)NC(=O)[C@@H]1CCCN1C(=O)[C@@H]1CCCN1C(=O)[C@@H]1CCCN1C(=O)[C@H](C)NC(=O)CNC(=O)[C@H](CO)NC(=O)[C@H](CO)NC(=O)[C@@H]1CCCN1C(=O)CNC(=O)CNC(=O)[C@H](C)NC(=O)[C@H](CC(C)C)NC(=O)[C@H](CC(C)C)NC(=O)[C@H](Cc1c[nH]c2ccccc12)NC(=O)[C@H](CC(N)=O)NC(=O)[C@@H](NC(=O)[C@H](Cc1ccccc1)NC(=O)[C@H](CCC(=O)O)NC(=O)C(C)(C)NC(=O)[C@H](C)NC(=O)[C@H](C)NC(=O)[C@H](CCC(N)=O)NC(=O)[C@H](CCCCN)NC(=O)[C@H](CC(=O)O)NC(=O)[C@H](CC(C)C)NC(=O)[C@H](Cc1ccc(O)cc1)NC(=O)[C@@H](NC(=O)[C@H](CO)NC(=O)[C@H](Cc1ccc(O)cc1)NC(=O)[C@H](CC(=O)O)NC(=O)[C@H](CO)NC(=O)[C@@H](NC(=O)[C@H](Cc1ccccc1)NC(=O)[C@@H](NC(=O)CNC(=O)[C@H](CCC(=O)O)NC(=O)CSCC(=O)NCCN1C(=O)C[C@@H](C)C1=O)[C@@H](C)O)[C@@H](C)O)[C@@H](C)CC)C(C)C)C(N)=O)C(=O)O [Compound 89] | 108 |  | 108 |  | 81 |  | 81 |  | 1 to 10 | 1 to 10 | 0.1 to 1 | 0.1 to 1
3 | CCCCCCCCCCCCCCCC(=O)N[C@@H](CCC(=O)NCCCC[C@H](NC(=O)[C@H](CO)NC(=O)[C@@H]1CCCN1C(=O)[C@@H]1CCCN1C(=O)[C@@H]1CCCN1C(=O)[C@H](C)NC(=O)CNC(=O)[C@H](CO)NC(=O)[C@H](CO)NC(=O)[C@@H]1CCCN1C(=O)CNC(=O)CNC(=O)[C@H](C)NC(=O)[C@H](CC(C)C)NC(=O)[C@H](CC(C)C)NC(=O)[C@H](Cc1c[nH]c2ccccc12)NC(=O)[C@H](CC(N)=O)NC(=O)[C@@H](NC(=O)[C@H](Cc1ccccc1)NC(=O)[C@H](CCC(=O)O)NC(=O)C(C)(C)NC(=O)[C@H](C)NC(=O)[C@H](C)NC(=O)[C@H](CCC(N)=O)NC(=O)[C@H](CCCCN)NC(=O)[C@H](CC(=O)O)NC(=O)[C@H](CC(C)C)NC(=O)[C@H](Cc1ccc(O)cc1)NC(=O)[C@@H](NC(=O)[C@H](CO)NC(=O)[C@H](Cc1ccc(O)cc1)NC(=O)[C@H](CC(=O)O)NC(=O)[C@H](CO)NC(=O)[C@@H](NC(=O)[C@H](Cc1ccccc1)NC(=O)[C@@H](NC(=O)CNC(=O)[C@H](CCC(=O)O)NC(=O)CSCC(=O)NCCN1C(=O)CNC1=O)[C@@H](C)O)[C@@H](C)O)[C@@H](C)CC)C(C)C)C(N)=O)C(=O)O [Compound 84] | 107 | 0.1 to 1 | 107 | 0.1 to 1 | 53 | 1 to 10 | 53 | 1 to 10 |  |  |  | 
4 | CCCCCCCCCCCCCCCC(=O)N[C@@H](CCC(=O)NCCCC[C@H](NC(=O)[C@H](CO)NC(=O)[C@@H]1CCCN1C(=O)[C@@H]1CCCN1C(=O)[C@@H]1CCCN1C(=O)[C@H](C)NC(=O)CNC(=O)[C@H](CO)NC(=O)[C@H](CO)NC(=O)[C@@H]1CCCN1C(=O)CNC(=O)[C@H](CCCNC(=N)N)NC(=O)[C@H](CCC(N)=O)NC(=O)[C@H](C)NC(=O)[C@H](CC(C)C)NC(=O)[C@H](CC(C)C)NC(=O)[C@H](Cc1c[nH]c2ccccc12)NC(=O)[C@H](CC(N)=O)NC(=O)[C@@H](NC(=O)[C@H](Cc1ccccc1)NC(=O)[C@H](CC(=O)O)NC(=O)[C@H](CCC(N)=O)NC(=O)[C@H](CCC(N)=O)NC(=O)[C@H](CCCNC(=N)N)NC(=O)[C@@H](NC(=O)[C@H](CCCCN)NC(=O)[C@H](CC(=O)O)NC(=O)[C@H](CCSC)NC(=O)[C@H](C)NC(=O)[C@@H](NC(=O)[C@H](CO)NC(=O)[C@H](Cc1ccc(O)cc1)NC(=O)[C@H](CC(=O)O)NC(=O)[C@H](CO)NC(=O)[C@@H](NC(=O)[C@H](Cc1ccccc1)NC(=O)[C@@H](NC(=O)CNC(=O)[C@H](CCC(=O)O)NC(=O)CSCC(=O)NCCN1C(=O)CSC1=O)[C@@H](C)O)[C@@H](C)CC)[C@@H](C)CC)[C@@H](C)CC)C(C)C)C(N)=O)C(=O)O [Compound 76] (X2-EGTFISDYSIAMDKIRQQDFVNWLLAQRGPSSGAPPPSK([γGlu-Palmitoyl])-NH2) | 95 | 1 to 10 | 95 | 1 to 10 | 89 | 0.1 to 1 | 89 | 0.1 to 1 |  |  |  | 
5 | CC[C@H](C)[C@H](NC(=O)[C@H](CO)NC(=O)[C@H](Cc1ccc(O)cc1)NC(=O)[C@H](CC(=O)O)NC(=O)[C@H](CO)NC(=O)[C@@H](NC(=O)[C@H](Cc1ccccc1)NC(=O)[C@@H](NC(=O)CNC(=O)[C@H](CCC(=O)O)NC(=O)CSCC(=O)NCCN1C(=O)CC(C)CC1=O)[C@@H](C)O)[C@@H](C)O)C(=O)N[C@@H](Cc1ccc(O)cc1)C(=O)N[C@@H](CC(C)C)C(=O)N[C@@H](CC(=O)O)C(=O)N[C@@H](CCCCN)C(=O)N[C@@H](CCC(N)=O)C(=O)N[C@@H](C)C(=O)N[C@@H](C)C(=O)NC(C)(C)C(=O)N[C@@H](CCC(=O)O)C(=O)N[C@@H](Cc1ccccc1)C(=O)N[C@H](C(=O)N[C@@H](CC(N)=O)C(=O)N[C@@H](Cc1c[nH]c2ccccc12)C(=O)N[C@@H](CC(C)C)C(=O)N[C@@H](CC(C)C)C(=O)N[C@@H](C)C(=O)NCC(=O)NCC(=O)N1CCC[C@H]1C(=O)N[C@@H](CO)C(=O)N[C@@H](CO)C(=O)NCC(=O)N[C@@H](C)C(=O)N1CCC[C@H]1C(=O)N1CCC[C@H]1C(=O)N1CCC[C@H]1C(=O)N[C@@H](CO)C(=O)N[C@@H](CCCCN)C(N)=O)C(C)C [Compound 113] | 89 |  | 89 |  | 52 |  | 52 |  | 10 to 100 | 10 to 100 | 10 to 100 | 10 to 100
6 | CC[C@H](C)[C@H](NC(=O)[C@H](CO)NC(=O)[C@H](Cc1ccc(O)cc1)NC(=O)[C@H](CC(=O)O)NC(=O)[C@H](CO)NC(=O)[C@@H](NC(=O)[C@H](Cc1ccccc1)NC(=O)[C@@H](NC(=O)CNC(=O)[C@H](CCC(=O)O)NC(=O)CSCC(=O)NCCN1C(=O)c2ccccc2C1=O)[C@@H](C)O)[C@@H](C)O)C(=O)N[C@@H](Cc1ccc(O)cc1)C(=O)N[C@@H](CC(C)C)C(=O)N[C@@H](CC(=O)O)C(=O)N[C@@H](CCCCN)C(=O)N[C@@H](CCC(N)=O)C(=O)N[C@@H](C)C(=O)N[C@@H](C)C(=O)NC(C)(C)C(=O)N[C@@H](CCC(=O)O)C(=O)N[C@@H](Cc1ccccc1)C(=O)N[C@H](C(=O)N[C@@H](CCC(=O)O)C(=O)N[C@@H](Cc1c[nH]c2ccccc12)C(=O)N[C@@H](CC(C)C)C(=O)N[C@@H](CC(C)C)C(=O)N[C@@H](C)C(=O)NCC(=O)NCC(=O)N1CCC[C@H]1C(=O)N[C@@H](CO)C(=O)N[C@@H](CO)C(=O)NCC(=O)N[C@@H](C)C(=O)N1CCC[C@H]1C(=O)N1CCC[C@H]1C(=O)N1CCC[C@H]1C(=O)N[C@@H](CO)C(=O)N[C@@H](CCCCN)C(N)=O)C(C)C [Compound 149] (X1-EGTFTSDYSIYLDKQAA[Aib]EFVEWLLAGGPSSGAPPPSK-NH2) | 86 to 92 |  | 86 to 92 |  | 113 |  | 113 |  | 1 to 10 | 1 to 10 | < 0.1 | < 0.1
